Results reported in ChEMBL document CHEMBL1201862, “PubChem BioAssay data set” (2004).
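1) Cells in 96-well plates. 2) Compound, 48 h, 5 concentrations. 3) Linear interpolation between surrounding doses. 4) Unreached endpoint = highest concentration. Here, GI50 denotes the concentration required for 50% inhibition of growth.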 Activity calls are given as the source filed them. Rule as the data show it: active = GI50 up to about 1.1 µM and inactive = higher. Where a SMILES comes first, the peptide text is derived from it. The star is where a group is joined. Boc = CC(C)(C)OC(=O)*; tBu = CC(C)(C)*

Legend:
Test in all cases: NCI tumour cell line growth inhibition, 48 h
[1] = tested on: K562
[2] = tested on: SF-268
[3] = tested on: SR
[4] = tested on: LOX IMVI
[5] = tested on: OVCAR-3
[6] = tested on: OVCAR-8
[7] = tested on: SK-MEL-5
[8] = tested on: PC-3
[9] = tested on: SK-MEL-2
[10] = tested on: NCI-H460
[11] = tested on: HOP-62
[12] = tested on: HCT-116
[13] = tested on: COLO 205
[14] = tested on: HOP-92
[15] = tested on: DU-145
[16] = tested on: IGROV-1
[17] = tested on: SW-620
[18] = tested on: RPMI-8226
[19] = tested on: BT-549
[20] = tested on: CAKI-1

| SMILES | GI50 [1] | GI50 [2] | GI50 [3] | GI50 [4] | GI50 [5] | GI50 [6] | GI50 [7] | GI50 [8] | GI50 [9] | GI50 [10] | GI50 [11] | GI50 [12] | GI50 [13] | GI50 [14] | GI50 [15] | GI50 [16] | GI50 [17] | GI50 [18] | GI50 [19] | GI50 [20] |
| --- | --- | --- | --- | --- | --- | --- | --- | --- | --- | --- | --- | --- | --- | --- | --- | --- | --- | --- | --- | --- |
| COc1ccc(NC(=O)CC(=O)N2N=C(C)C(/N=N\c3ccc(S(=O)(=O)c4ccc(/N=N/C5C(=O)N(C(=O)CC(=O)Nc6ccc(OC)cc6)N=C5C)cc4)cc3)C2=O)cc1 (stereo not given) | 50 µM (inactive) | 35.9 µM (inactive) | > 100 µM (inactive) | > 100 µM (inactive) | > 100 µM (inactive) | > 100 µM (inactive) | 63 µM (inactive) | > 100 µM (inactive) | > 100 µM (inactive) | > 100 µM (inactive) | 45.6 µM (inactive) | > 100 µM (inactive) | > 100 µM (inactive) | 63.5 µM (inactive) | > 100 µM (inactive) | 55.1 µM (inactive) | > 100 µM (inactive) | > 100 µM (inactive) | > 100 µM (inactive) | > 100 µM (inactive) |
| COc1ccc2c(C)cc(N/N=C(\C)C=O)nc2c1 | 2.47 µM (inactive) | 13.8 µM (inactive) | 1.64 µM (inactive) | 10.2 µM (inactive) | 2.25 µM (inactive) | 11.5 µM (inactive) | 12.7 µM (inactive) | 9.2 µM (inactive) | 13.4 µM (inactive) | 8.99 µM (inactive) | 8.79 µM (inactive) | 11 µM (inactive) | 13.8 µM (inactive) | 10.5 µM (inactive) | 11.7 µM (inactive) | 16.5 µM (inactive) | 7.57 µM (inactive) | 6.31 µM (inactive) | 15.1 µM (inactive) | 14.4 µM (inactive) |
| CC(OC(C)(C)C)C(NC(=O)C(N)CCCCNC(=O)OC(C)(C)C)C(=O)NC(Cc1ccccc1)C(=O)O (stereo not given) (H-Lys(Boc)-Thr(tBu)-Phe-OH; configuration not given here) | > 100 µM (inactive) | > 100 µM (inactive) | > 100 µM (inactive) | > 100 µM (inactive) | > 100 µM (inactive) | > 100 µM (inactive) | > 100 µM (inactive) | > 100 µM (inactive) | > 100 µM (inactive) | > 100 µM (inactive) | > 100 µM (inactive) | > 100 µM (inactive) | > 100 µM (inactive) | > 100 µM (inactive) | > 100 µM (inactive) | > 100 µM (inactive) | > 100 µM (inactive) | > 100 µM (inactive) | > 100 µM (inactive) | > 100 µM (inactive) |
| CCC(=C/[C@H](C)C/C=C/C(C)=C/[C@@H](C)C(=O)[C@@H](C)[C@H](O)[C@@H](C)CC)/C=C/[C@H]1CC=CC(=O)O1 [CALLYSTATIN A] | < 0.0012 µM (active) | < 0.0012 µM (active) | < 0.0012 µM (active) | < 0.0012 µM (active) | < 0.0012 µM (active) | < 0.0012 µM (active) | < 0.0012 µM (active) | < 0.0012 µM (active) | < 0.0012 µM (active) | < 0.0012 µM (active) | < 0.0012 µM (active) | < 0.0012 µM (active) | < 0.0012 µM (active) | 0.329 µM (active) | < 0.0012 µM (active) | < 0.0012 µM (active) | < 0.0012 µM (active) | 2.67 µM (inactive) | < 0.0012 µM (active) | < 0.0012 µM (active) |
